In patent publication US20230183640A1, “METABOLIC INHIBITORS WITH EFFICACY FOR INHIBITING SULFIDE PRODUCTION IN HARSH ENVIRONMENTS” (MC (US) 3 LLC, priority 2020, published 2023):

Experiments:
Test in all cases: Log (Growth) efficacy in anaerobic conditions, non-SRB bacteria
Format in all cases: cell-based
[1] = test system: Enterococcus faecalis 29212
Protocol: (§1) Enumerations were done at each time point, which included 0 hour, 1 hour, 4 hours and 24 hours. Enumeration plates were made to determine the log growth in each dosed sample. For this process, enumeration plates were prepared by adding 180 μL fresh TSB. 20 μL was taken from each well of the challenge plates and transferred to the enumeration plates using a 20-200 μL multichannel pipette. Enumeration plates were mixed three times using the multichannel pipette and serial diluted down the plate tenfold (20 μL into 180 μL). This serial dilution process was repeated for all challenge plate rows giving a total of 6 enumeration plates. These enumeration plates were read after 24-hours and by counting the number of turbid wells in a row.
(§2) Klebsiella pneumoniae 13883, Enterobacter aerogenes 13048, Escherichia coli 8739, and Enterococcus faecalis 29212 cultures were made by adding one loop from a freezer stock to 10 mL of fresh Phenol Red Media. These were grown anaerobically at 30° C. for 24 hours.
(§3) Following the 24-hour incubation, each culture was diluted to 1:10 in fresh Phenol Red Media. Using these cultures, two deep well plates were prepared. Edge wells were not used due to their inherent variability and evaporation of the media. Each of the components were added at their respective concentrations for a final volume of 250 μL per well. In Table 9, the concentrations of the compound C1 used for the experiments are listed. Each experiment was done with at least three replicates for different treatments and non-treatment controls. Plates were then sealed with a titer-top and incubated at room temperature in anaerobic chamber. Enumerations were conducted at 0 hour, 1 hour, 4 hours, and 24 hours. The process for these enumerations was the same as that done for example 2; however, utilizing phenol red media instead of tryptic soy broth.

Escherichia coli 8739 = test system: Escherichia coli 8739
Protocol: as §1, §2, §3

[2] = test system: Klebsiella pneumoniae 13883
Protocol: as §1, §2, §3

[3] = test system: Enterobacter aerogenes 13048
Protocol: as §1, §2, §3

For `O=C(CN1C(=O)c2cccc3cccc(c23)C1=O)NO` [C1], the “Log (Growth)” value ([1]; 0 hours, 15.625 PPM) was 7.000, the “Log (Growth)” value ([1]; 0 hours, 31.25 PPM) was 6.667 and the “Log (Growth)” value ([1]; 0 hours, 62.5 PPM) was 7.000. The “Log (Growth)” value ([1]; 0 hours, 125 PPM) was 6.333, the “Log (Growth)” value ([1]; 0 hours, 250 PPM) was 7.000 and the “Log (Growth)” value ([1]; 0 hours, 500 PPM) was 6.667. For the same compound, the “Log (Growth)” value ([1]; 1 hour, 15.625 PPM) was 6.667, the “Log (Growth)” value ([1]; 1 hour, 31.25 PPM) was 6.000 and the “Log (Growth)” value ([1]; 1 hour, 62.5 PPM) was 6.333. The “Log (Growth)” value ([1]; 1 hour, 125 PPM) was 5.667, the “Log (Growth)” value ([1]; 1 hour, 250 PPM) was 6.333 and the “Log (Growth)” value ([1]; 1 hour, 500 PPM) was 6.000. The “Log (Growth)” value ([1]; 4 hours, 15.625 PPM) was 6.667, the “Log (Growth)” value ([1]; 4 hours, 31.25 PPM) was 5.667 and the “Log (Growth)” value ([1]; 4 hours, 62.5 PPM) was 4.667. The “Log (Growth)” value ([1]; 4 hours, 125 PPM) was 4.333, the “Log (Growth)” value ([1]; 4 hours, 250 PPM) was 4.333 and the “Log (Growth)” value ([1]; 4 hours, 500 PPM) was 4.667. For the same compound, the “Log (Growth)” value ([1]; 24 hours, 15.625 PPM) was 6.333, the “Log (Growth)” value ([1]; 24 hours, 31.25 PPM) was 5.333 and the “Log (Growth)” value ([1]; 24 hours, 62.5 PPM) was 5.667. The “Log (Growth)” value ([1]; 24 hours, 125 PPM) was 5.667, the “Log (Growth)” value ([1]; 24 hours, 250 PPM) was 4.333 and the “Log (Growth)” value ([1]; 24 hours, 500 PPM) was 4.000. The “Log (Growth)” value (Escherichia coli 8739; 0 hours, 15.625 PPM) was 7.000, the “Log (Growth)” value (Escherichia coli 8739; 0 hours, 31.25 PPM) was 6.667 and the “Log (Growth)” value (Escherichia coli 8739; 0 hours, 62.5 PPM) was 6.667. The “Log (Growth)” value (Escherichia coli 8739; 0 hours, 125 PPM) was 6.333, the “Log (Growth)” value (Escherichia coli 8739; 0 hours, 250 PPM) was 6.000 and the “Log (Growth)” value (Escherichia coli 8739; 0 hours, 500 PPM) was 6.333. For the same compound, the “Log (Growth)” value (Escherichia coli 8739; 1 hour, 15.625 PPM) was 7.000, the “Log (Growth)” value (Escherichia coli 8739; 1 hour, 31.25 PPM) was 6.000 and the “Log (Growth)” value (Escherichia coli 8739; 1 hour, 62.5 PPM) was 6.333. For the same compound, the “Log (Growth)” value (Escherichia coli 8739; 1 hour, 125 PPM) was 6.000, the “Log (Growth)” value (Escherichia coli 8739; 1 hour, 250 PPM) was 6.000 and the “Log (Growth)” value (Escherichia coli 8739; 1 hour, 500 PPM) was 6.000. For the same compound, the “Log (Growth)” value (Escherichia coli 8739; 4 hours, 15.625 PPM) was 6.667, the “Log (Growth)” value (Escherichia coli 8739; 4 hours, 31.25 PPM) was 6.667 and the “Log (Growth)” value (Escherichia coli 8739; 4 hours, 62.5 PPM) was 5.333. The “Log (Growth)” value (Escherichia coli 8739; 4 hours, 125 PPM) was 4.667, the “Log (Growth)” value (Escherichia coli 8739; 4 hours, 250 PPM) was 5.000 and the “Log (Growth)” value (Escherichia coli 8739; 4 hours, 500 PPM) was 4.333. The “Log (Growth)” value (Escherichia coli 8739; 24 hours, 15.625 PPM) was 6.000, the “Log (Growth)” value (Escherichia coli 8739; 24 hours, 31.25 PPM) was 4.000 and the “Log (Growth)” value (Escherichia coli 8739; 24 hours, 62.5 PPM) was 2.667. For the same compound, the “Log (Growth)” value (Escherichia coli 8739; 24 hours, 125 PPM) was 3.000, the “Log (Growth)” value (Escherichia coli 8739; 24 hours, 250 PPM) was 4.000 and the “Log (Growth)” value (Escherichia coli 8739; 24 hours, 500 PPM) was 2.667. The “Log (Growth)” value ([2]; 0 hours, 15.625 PPM) was 6.667, the “Log (Growth)” value ([2]; 0 hours, 31.25 PPM) was 6.667 and the “Log (Growth)” value ([2]; 0 hours, 62.5 PPM) was 6.667. The “Log (Growth)” value ([2]; 0 hours, 125 PPM) was 6.667, the “Log (Growth)” value ([2]; 0 hours, 250 PPM) was 6.000 and the “Log (Growth)” value ([2]; 0 hours, 500 PPM) was 6.000. The “Log (Growth)” value ([2]; 1 hour, 15.625 PPM) was 6.667, the “Log (Growth)” value ([2]; 1 hour, 31.25 PPM) was 5.667 and the “Log (Growth)” value ([2]; 1 hour, 62.5 PPM) was 5.000. The “Log (Growth)” value ([2]; 1 hour, 125 PPM) was 3.667, the “Log (Growth)” value ([2]; 1 hour, 250 PPM) was 4.333 and the “Log (Growth)” value ([2]; 1 hour, 500 PPM) was 4.333. For the same compound, the “Log (Growth)” value ([2]; 4 hours, 15.625 PPM) was 3.333, the “Log (Growth)” value ([2]; 4 hours, 31.25 PPM) was 2.000 and the “Log (Growth)” value ([2]; 4 hours, 62.5 PPM) was 2.000. For the same compound, the “Log (Growth)” value ([2]; 4 hours, 125 PPM) was 1.667, the “Log (Growth)” value ([2]; 4 hours, 250 PPM) was 2.333 and the “Log (Growth)” value ([2]; 4 hours, 500 PPM) was 2.000. For the same compound, the “Log (Growth)” value ([2]; 24 hours, 15.625 PPM) was 6.333, the “Log (Growth)” value ([2]; 24 hours, 31.25 PPM) was 4.667 and the “Log (Growth)” value ([2]; 24 hours, 62.5 PPM) was 5.667. For the same compound, the “Log (Growth)” value ([2]; 24 hours, 125 PPM) was 1.667, the “Log (Growth)” value ([2]; 24 hours, 250 PPM) was 0.000 and the “Log (Growth)” value ([2]; 24 hours, 500 PPM) was 0.000. For the same compound, the “Log (Growth)” value ([3]; 0 hours, 15.625 PPM) was 6.333, the “Log (Growth)” value ([3]; 0 hours, 31.25 PPM) was 6.667 and the “Log (Growth)” value ([3]; 0 hours, 62.5 PPM) was 6.333. For the same compound, the “Log (Growth)” value ([3]; 0 hours, 125 PPM) was 6.333, the “Log (Growth)” value ([3]; 0 hours, 250 PPM) was 6.667 and the “Log (Growth)” value ([3]; 0 hours, 500 PPM) was 6.333. The “Log (Growth)” value ([3]; 1 hour, 15.625 PPM) was 7.000, the “Log (Growth)” value ([3]; 1 hour, 31.25 PPM) was 6.333 and the “Log (Growth)” value ([3]; 1 hour, 62.5 PPM) was 7.000. The “Log (Growth)” value ([3]; 1 hour, 125 PPM) was 6.000, the “Log (Growth)” value ([3]; 1 hour, 250 PPM) was 5.667 and the “Log (Growth)” value ([3]; 1 hour, 500 PPM) was 5.667. For the same compound, the “Log (Growth)” value ([3]; 4 hours, 15.625 PPM) was 7.333, the “Log (Growth)” value ([3]; 4 hours, 31.25 PPM) was 7.000 and the “Log (Growth)” value ([3]; 4 hours, 62.5 PPM) was 4.667. For the same compound, the “Log (Growth)” value ([3]; 4 hours, 125 PPM) was 5.000, the “Log (Growth)” value ([3]; 4 hours, 250 PPM) was 5.333 and the “Log (Growth)” value ([3]; 4 hours, 500 PPM) was 5.333. The “Log (Growth)” value ([3]; 24 hours, 15.625 PPM) was 7.667, the “Log (Growth)” value ([3]; 24 hours, 31.25 PPM) was 6.667 and the “Log (Growth)” value ([3]; 24 hours, 62.5 PPM) was 6.333. The “Log (Growth)” value ([3]; 24 hours, 125 PPM) was 6.000, the “Log (Growth)” value ([3]; 24 hours, 250 PPM) was 6.333 and the “Log (Growth)” value ([3]; 24 hours, 500 PPM) was 6.000.
